Assay results published in ChEMBL document CHEMBL1201862, “PubChem BioAssay data set” (2004).
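All cell lines were grown in 96-well plates and treated with compound for 48 hours. GI50 is the concentration that inhibits growth by half.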 Calls of active or inactive are those of the source. Rule as the data show it: active = GI50 up to about 1.1 µM and inactive = higher.

Tests used:
Assay in all cases: growth of human tumour cells (NCI), 48 h
[1] = tested on: 786-0
[2] = tested on: A498
[3] = tested on: A549
[4] = tested on: ACHN
[5] = tested on: CAKI-1
[6] = tested on: CCRF-CEM
[7] = tested on: COLO 205
[8] = tested on: DLD-1
[9] = tested on: DMS-114
[10] = tested on: DMS-273
[11] = tested on: EKVX
[12] = tested on: HCC 2998
[13] = tested on: HCT-116
[14] = tested on: HCT-15
[15] = tested on: HL-60
[16] = tested on: HOP-18
[17] = tested on: HOP-62
[18] = tested on: HOP-92
[19] = tested on: HT-29
[20] = tested on: IGROV-1
[21] = tested on: K562
[22] = tested on: KM-20L2
[23] = tested on: KM12
[24] = tested on: LOX IMVI
[25] = tested on: LXFL 529
[26] = tested on: M14
[27] = tested on: M19-MEL
[28] = tested on: MOLT-4
[29] = tested on: Malme-3M
[30] = tested on: NCI-H226
[31] = tested on: NCI-H23
[32] = tested on: NCI-H460
[33] = tested on: NCI-H522
[34] = tested on: OVCAR-3
[35] = tested on: OVCAR-4
[36] = tested on: OVCAR-5
[37] = tested on: OVCAR-8
[38] = tested on: RPMI-8226
[39] = tested on: RXF 393
[40] = tested on: SF-268
[41] = tested on: SF-295
[42] = tested on: SF-539
[43] = tested on: SK-MEL-2
[44] = tested on: SK-MEL-5
[45] = tested on: SK-OV-3
[46] = tested on: SN12C
[47] = tested on: SNB-19
[48] = tested on: SNB-75
[49] = tested on: SNB-78
[50] = tested on: SR
[51] = tested on: SW-620
[52] = tested on: TK-10
[53] = tested on: U-251
[54] = tested on: UACC-257
[55] = tested on: UACC-62
[56] = tested on: UO-31
[57] = tested on: XF498
[58] = tested on: RXF 631
[59] = tested on: SK-MEL-28

Measured: GI50

Cc1c2nc3ccccc3sc-2cc(=O)c1C
12.9 µM: [14]
inactive: [1] > 100 µM | [2] > 100 µM | [3] 48.8 µM | [4] 48.9 µM | [5] 55 µM | [6] 20.9 µM | [7] 34.7 µM | [8] 12.7 µM | [9] 10.2 µM | [10] 50.6 µM | [11] > 80.4 µM | [12] > 100 µM | [13] 12.7 µM | [15] 14.1 µM | [16] > 100 µM | [17] > 100 µM | [18] > 65.9 µM | [19] > 77.3 µM | [20] > 56.2 µM | [21] 24.3 µM | [22] > 72.6 µM | [23] 76.6 µM | [24] 29.8 µM | [25] 41 µM | [26] 55.3 µM | [27] 15.8 µM | [28] 34.5 µM | [29] 46.5 µM | [30] > 100 µM | [31] 10.3 µM | [32] 12.4 µM | [33] > 57.3 µM | [34] 35.3 µM | [35] 65.3 µM | [36] > 95.5 µM | [37] 49.7 µM | [38] 39.8 µM | [39] 90.8 µM | [40] 25.6 µM | [41] 61.2 µM | [42] 44.9 µM | [43] 14.4 µM | [44] 34.8 µM | [45] > 100 µM | [46] > 10 µM | [47] > 100 µM | [48] 52.6 µM | [49] > 24.3 µM | [50] > 10 µM | [51] > 90.2 µM | [52] > 100 µM | [53] 47.5 µM | [54] 10.3 µM | [55] 15.5 µM | [56] 36 µM | [57] 28.4 µM

CCOC(=O)NC(=O)c1cn(C2OC(CO)C(O)C2O)c(=O)[nH]c1=O (stereo not drawn)
> 100 µM: [14]
inactive: [1] > 100 µM | [2] > 100 µM | [3] > 100 µM | [4] > 100 µM | [5] > 100 µM | [8] > 100 µM | [9] > 100 µM | [10] > 100 µM | [11] > 100 µM | [12] > 100 µM | [13] > 100 µM | [15] > 100 µM | [17] > 100 µM | [19] > 100 µM | [20] > 100 µM | [21] > 100 µM | [22] > 100 µM | [23] > 100 µM | [24] > 100 µM | [25] > 100 µM | [26] > 100 µM | [27] > 100 µM | [28] > 100 µM | [29] > 100 µM | [30] > 100 µM | [32] > 100 µM | [33] > 100 µM | [34] > 100 µM | [35] > 100 µM | [36] > 100 µM | [37] > 100 µM | [38] > 100 µM | [39] > 100 µM | [58] > 100 µM | [40] > 100 µM | [41] > 100 µM | [42] > 100 µM | [59] > 100 µM | [43] > 100 µM | [44] > 100 µM | [45] > 100 µM | [46] > 100 µM | [47] > 100 µM | [48] > 100 µM | [50] > 100 µM | [51] > 100 µM | [53] > 100 µM | [54] > 100 µM | [55] > 100 µM | [56] > 100 µM
